No end group written: not given here.
Assays:
[1] = test system: cytokines secretion in colon extracts; test: Cytokine assays in colon extracts of DSS-induced colitis mice; assay type: in vivo; conditions: OxA treatment
Protocol: FIG. 3: OXA effects on cytokines secretion in DSS-induced colitis mice. Right, Colons of DSS untreated mice (white), DSS treated mice (gray) and DSS treated mice associated to OxA treatment (black) were resected after animal sacrifice. Then, protein extraction was performed by tissue disruption. Cytokines were determined using Cytokine CBA kits (see Material and Methods). Left, after colon resection, RNA were extracted from colonic tissue and qPCR was performed using specific oligonucleotides for IL8 homolog and IL1B.
These observations are confirmed by histologic aspect of colon epithelium (histologic scoring by a GI pathologist). Thus, OxA has probably an anti-inflammatory effect on DSS-induced colitis. To confirm this hypothesis, we have investigated the anti-inflammatory effect of OxA treatment on cytokines secretion in colon extracts from DSS-treated mice. […] In contrast, OxA has no effect on INFγ, IL10, and IL12 cytokine secretion in colon extracts (FIG. 3).
Cytokine assays: Mice were sacrificed and colons were resected. Proteins were extracted from colon by tissue disruption in PBS using Tissue Lyser (Qiagen, Courtaboeuf, France). Various cytokines (see FIG. 3) were determined using Cytokine CBA kits (BD Sciences, Le Pont de Claix, France).

[2] = test system: cerulein-induced chronic pancreatitis mice; test: Chronic pancreatitis mice model induced by cerulein; assay type: in vivo
Description: FIG. 9. Pancreatic lymphocyte infiltration determined by immunostaining of CD45+ cells. Values were expressed as percentage of stained surface. **, p<0.01
FIG. 10: Amylase activity in blood samples of control mice, cerulein-induced mice and cerulein-induced mice treated with OxA. *, p<0.05; ***, p<0.001 and NS, non significant.
We have investigated the effect of orexin A (OxA) on chronic pancreatitis mice model induced by supraphysiologic doses of cerulein (3 intraperitoneal injections/week at 100 μg/kg). […] In mice treated by OxA (2 intraperitoneal injections/week at 1.40 μmol/Kg) the lesions induced by cerulein improved. OxA-treated mice had lower number of acino-ductal metaplasia.

HEK-OX1R cells = test: Cells growth determination, HEK-OX1R cells; assay type: cell-based; conditions: 48 hr; OxA 0.1 μM, SB408124 increasing concentrations
Protocol: FIG. 12: Determination of the inhibition of cellular growth of HEK-OX1R cells and colon adenocarcinoma cells (HT-29) induced by 0.1 μM of OxA or various concentrations of SB408124 antagonist. HEK-OX1R cells (black column) and HT-29 cells (white column) were incubated with 0.1 μM of OxA and indicated increasing concentration of SB408124, and cells were counted after 48 hr incubation. Results are expressed as the percentage of total viable cells.
Cells growth determination and apoptosis assay: HEK-OX1R cells or colon adenocarcinoma HT-29 cells were seeded, grown and maintained at 37° C. in a humidified 5% CO2/air incubator. After 24 hr culture, cells were treated with or without Orexin-A peptide or SB408124 antagonist, previously dissolved in DMSO, to be tested at the concentration indicated in the figure legends. After 48 hr of treatment, adherent cells were harvested by Trip1E (Life Technologies, Saint Aubin, France) and manually counted. Apoptosis was determined using the Guava PCA system and the Guava nexin kit.

“OxA: neuropeptide, endogenous ligand of OX1R and OX2R, with two disulphide bridges (QPLPDCCRQKTCSCRLYELLHGAGNHAAGILTL; disulfide (positions not given here); ends not checked; also: two disulphide bridges, pairing not given here; UniProt O43612 34-66, looked up)” was tested, and the “IL6 secretion in colon extracts” value [1] was “reduces”, the “IL10 secretion in colon extracts” value [1] was “no effect” and the “IL12 secretion in colon extracts” value [1] was “no effect”. For the same substance, the “INFγ secretion in colon extracts” value [1] was “no effect”, the “TNFα secretion in colon extracts” value [1] was “reduces” and the “IL1B in colon extracts” value ([1]; qPCR per FIG. 3) was “reduces”. For the same substance, the “IL8 homolog in colon extracts” value ([1]; qPCR per FIG. 3) was “reduces”, the “Pancreatic lymphocyte infiltration (anti-CD45 immunohistochemistry)” value ([2]; OxA 1.40 μmol/Kg, quantitative imaging analysis, 18% in OxA-untreated mice) was 6 % of the pancreatic surface and the “Pancreatic fibrosis on Picrosirius staining” value ([2]; OxA 1.40 μmol/Kg, quantitative imaging analysis, 40% in OxA-untreated mice) was 12 % of the pancreatic surface. For the same substance, the “Number of acino-ductal metaplasia” value ([2]; OxA 2 intraperitoneal injections/week at 1.40 μmol/Kg) was “lower number”, the “Lesions induced by cerulein (histological analysis of the pancreas)” value ([2]; OxA 2 intraperitoneal injections/week at 1.40 μmol/Kg, 3 weeks of cerulein) was “improved” and the “Amylase activity in blood samples” value ([2]; cerulein-induced mice treated with OxA) was “significantly reduced”. For the same substance, the “Inhibition of cellular growth of HEK-OX1R cells” value (HEK-OX1R cells) was “strong inhibition”.

Reference: patent publication US20190151304A1, “METHODS AND PHARMACEUTICAL COMPOSITIONS FOR THE TREATMENT OF AUTOIMMUNE INFLAMMATORY” (INSERM (INSTITUT NATIONAL DE LA SANTÉ ET DE LA RECHERCJAE …, priority 2016, published 2019)
